Assay results as given in publication PMC6920923, “Improving In Vivo Brain Delivery of Monoclonal Antibody Using Novel Cyclic Peptides” (Pharmaceutics, 2019).
“Also recorded” adds a separate entry of the source.

Assays:
EC1 domain of E-cadherin = molecular target: T1, EC1 domain of E-cadherin (Homo sapiens, UniProt P12830); settings: NMR studies; ref [26]; cited from earlier work
T1 sequence (P12830 155-262 limits assumed): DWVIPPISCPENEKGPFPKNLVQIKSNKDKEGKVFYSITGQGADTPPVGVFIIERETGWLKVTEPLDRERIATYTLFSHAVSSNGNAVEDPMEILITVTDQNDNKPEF
From the text: Cadherin peptides interrupt the cadherin–cadherin interactions by binding to the extracellular domains of cadherins allowing delivered molecules to pass through the […] of the BBB. […] Using the X-ray structure of C-cadherin as a model, it is seen that the cadherin molecules can form cis- and trans-interactions with each other in a homotypic fashion. The cis-cadherin interactions were formed via binding of the EC1 domain from one ca ...

BBB [1] = settings: disulfide cyclic peptides vs parent linear peptides; ref [19],[20]; cited from earlier work
From the text: The goal of this study was to design and synthesize novel cyclic peptides derived from HAV6 and ADTC5 peptides to improve their BBB modulatory activity and selectivity by forming a peptide bond from the N- to C-termini (Table 1, Figure 1). The hypothesis is that the formation of N-to-C-termini cyclic peptides increases the backbone rigidity of the peptide to improve binding affinity and selectivity for the EC1 domain of cadherin as well as improving plasma stability of the cyclic peptide compared to its parent linear peptide. Previously, cHAVc3 and ADTC5 cyclic peptides were formed using a dis ...

MDCK cell monolayers = settings: ref [19], cited from earlier work
Protocol: Previously, cyclic cHAVc1 (cyclo(1,8)Ac-CSHAVASC-NH2) and cHAVc3 (cyclo(1,6)Ac-CSHAVC-NH2) were prepared and compared to a linear HAV4 (Ac-SHAVAS-NH2) in modulating the intercellular junctions in vitro and in vivo [19]. […] An alanine scanning study was carried out to evaluate the role of each amino acid in HAV6 peptide, and the biological activity of each alanine mutant peptide was evaluated in lowering the TEER values of MDCK cell monolayers. Mutation of the Ser1 to Ala1 residue reduced the junction modulatory activity of the HAV6 mutant; ...

brain [2] = settings: MRI, mice; ref [19]; cited from earlier work
Protocol: Previously, cyclic cHAVc1 (cyclo(1,8)Ac-CSHAVASC-NH2) and cHAVc3 (cyclo(1,6)Ac-CSHAVC-NH2) were prepared and compared to a linear HAV4 (Ac-SHAVAS-NH2) in modulating the intercellular junctions in vitro and in vivo [19].

[3] = test system: medulloblastoma brain tumor; settings: ref [24], cited from earlier work
Protocol: (§1) Several attempts have been made to overcome this challenge using various invasive and non-invasive methods. Intracerebral ventricular (ICV) delivery is an invasive injection technique in which drug substances are administered directly into the cerebrospinal fluid in cerebral ventricles. Alternatively, many non-invasive methods have been investigated in vivo with various levels of success using receptor-mediated drug delivery systems, liposomes, microbubble-enhanced diagnostic ultrasound (MEUS), and nanoparticles. The most successful non-invasive method for delivering drugs to ...

brain [4] = settings: cited from earlier work
Protocol: as §1

brain (C57BL/6 mice) [5] = settings: recent studies, ref not given; cited from earlier work
From the text: Treating brain diseases is a challenge as it is difficult to deliver drugs through the BBB into the brain. As many approaches to solve this problem have failed clinically, it is important to investigate new methods to improve brain delivery of molecules for diagnosing and treating brain diseases. This study was focused on designing, synthesizing, and evaluating new cyclic peptides for modulating the BBB to increase paracellular protein delivery into the brain.

BBB [6] = settings: cited from earlier work
Protocol: The duration of time of the BBB opening is an important factor to consider for using cadherin peptides to deliver molecules to the brain. This is because it is dangerous to keep the BBB open for a long period of time, allowing unwanted molecules to enter the brain. However, it is necessary to maintain the opening for an adequate amount of time to allow the delivered molecule to enter the brain with the necessary dose. For example, HAV6 has an opening window of less than 1 h to allow a small molecule such as IRdye-R800 and gadopentetic acid (Gd-DTPA) to enter the brain, while ADTC5 has a durati ...

brain (C57BL/6 mice) [7] = settings: peptide 13 µmol/kg, albumin 21.6 nmol/kg; ref not given; cited from earlier work
From the text: Treating brain diseases is a challenge as it is difficult to deliver drugs through the BBB into the brain. As many approaches to solve this problem have failed clinically, it is important to investigate new methods to improve brain delivery of molecules for diagnosing and treating brain diseases. This study was focused on designing, synthesizing, and evaluating new cyclic peptides for modulating the BBB to increase paracellular protein delivery into the brain. […] It is proposed that the rigidity imposed on the peptide backbone of the cyclic peptide reduced the ensemble ...

brains of C57BL/6 mice = experiment: In vivo brain delivery of IRdye800CW-IgG mAb (NIRF quantification); settings: n = 3
Protocol: The activity of each peptide in enhancing BBB penetration was evaluated by delivering IRdye800CW donkey anti-goat IgG mAb in C57BL/6 mice; the amounts of mAb in the brain were determined using near infrared fluorescence (NIRF) imaging. Each group contains 3 mice per group (n = 3) with a mixture of male and female mice, selected randomly for each arm of the study. The injection solution was prepared by adding 600 µL PBS into 0.5 mg lyophilized IgG mAb; then, approximately 1.5 mg lyophilized peptide was added into the mixture yielding the injectable formulation. A 100 µL solution of a mixture containing IgG mAb (21.6 nmol/kg) along with 13 µmol/kg peptide was administered via tail vein. As a control, 100 µL of IgG mAb alone was administered via i.v. route. After the delivered molecules had been circulating for 15 min, the mice were sacrificed; then, a mixture of PBS with 0.5% Tween-20 was administered for cardiac perfusion to remove the blood and delivered molecules from the brain microvessels. The brain and other organs such as lung, heart, spleen, liver, and kidney were harvested and rinsed with PBS. The isolated organs were scanned with Odyssey® CLx for mAb quantification.
The brain deposition of IgG mAb was also quantified by NIRF imaging in brain homogenates. The isolated brains were mechanically homogenized in 2.0 mL of PBS. To make the standard solutions, IRDye800CW IgG mAb stock solution (70 µg/mL) was prepared; it was then diluted with various amounts of PBS to make six different mAb concentrations. To generate a calibration curve, the brain homogenate (200 µL) was aliquoted out to a 96-well plate. A total of 10 µL of each concentration of IgG mAb was added to three different wells of blank brain homogenates. The standard spiked homogenates were at a range of 10–200 ng/mL IgG mAb in brain homogenate. The wells were scanned using the Odyssey® CLx scanner, and the signal intensities vs. concentrations of mAb per gram of brain were used to generate a calibration curve.
ANOVA with Student–Newman–Keuls was used to compare the data for determining statistical significance for IgG mAb deposition in the brains. A p-value of less than 0.05 was used as a criterion for a significant difference in data comparison. Numeric results are presented as: mean ± SEM.
A calibration curve was generated to determine the amount of IgG mAb in the brain by spiking blank brain homogenates with a concentration range from 10 to 200 ng/mL, and good linearity with R^2 ≥ 0.98 was achieved. […] The average amounts of IgG mAb in the brains of HAV6-treated and control animals were 3.4 ± 0.4 and 4.0 ± 0.5 pmol/g brain, respectively. In contrast, the average amounts of mAb in the brains of cyclic HAVN1- and HAVN2-treated mice were 8.6 ± 0.5 and 8.8 ± 0.6 pmol/g brain, respectively. The BBB modulatory activities of ADTC5, linear ADTHAV, and cyclic ADTHAV were also compared to the control (Figure 5). […] The average brain deposition of IgG mAb were 11.8 ± 0.5, 15.7 ± 0.8, and 13.3 ± 0.7 pmol/g brain for linear ADTHAV, cyclic ADTHAV, and ADTC5, respectively.

BBB [8] = settings: ref [22], cited from earlier work
From the text: Treating brain diseases is a challenge as it is difficult to deliver drugs through the BBB into the brain. As many approaches to solve this problem have failed clinically, it is important to investigate new methods to improve brain delivery of molecules for diagnosing and treating brain diseases. This study was focused on designing, synthesizing, and evaluating new cyclic peptides for modulating the BBB to increase paracellular protein delivery into the brain. […] This is because it is dangerous to keep the BBB open for a long period of time, allowing unwanted molecules to enter the brain. However, it is necessary to maintain the opening for an adequate amount of time to allow the delivered molecule to enter the brain with the necessary dose. For example, HAV6 has an opening window of less than 1 h to allow a small molecule such as IRdye-R800 and gadopentetic acid (Gd-DTPA) to enter the brain, while ADTC5 has a durati ...

[9] = test system: primary brain endothelial cell monolayers; settings: ref [33] Bocsik et al.; cited from earlier work
From the text: (§2) This study was also aimed at developing cyclic ADTHAV peptide by combining important residues from the ADT peptide (i.e., ADTC5) and HAV peptide (i.e., HAV6). Because ADTC5 and HAV6 bind at different sites on the EC1 domain, combining the two active sequences could provide synergistic activity form both parent peptides on cyclic ADTHAV. In this case, cyclic ADTHAV contains the Thr-Pro-Pro-Val sequence from ADTC5 and Ser-His-Ala-Val sequence from HAV6. The hypothesis is that the combined sequence enhances BBB modulatory activity better than the parent ADTC5 and HAV6. The selection of the Thr-Pr ...

[10] = test system: MDCK cell monolayers / in vivo BBB; settings: vs ADTC1 or ADTC5; ref [20]; cited from earlier work
From the text: as §2

## cyclo(1,6)Ac-CSHAVC-NH2 (disulfide) [cHAVc3, earlier disulfide cyclic HAV peptide]
EC1 domain of E-cadherin
  binding site on EC1 domain, in words: bind to the EC1 domain of E-cadherin at the interface of cis-cadherin interactions
BBB [1]
  BBB modulatory activity and plasma stability vs parent linear peptides, in words: enhanced BBB modulatory activity and plasma stability compared to their parent linear peptides
MDCK cell monolayers; TEER
  lowering of TEER values of MDCK cell monolayers vs HAV4, in words: better than a linear HAV4
MDCK cell monolayers; compared to HAV4 (and cHAVc1)
  junction modulatory activity in MDCK cell monolayers, in words: more active compared to HAV4 and cHAVc1
Brain [2]
  in vivo brain delivery of Gd-DTPA vs HAV4, in words: better than a linear HAV4

## Ac-SHAVSS-NH2 [HAV6, parent linear cadherin peptide]
[3]; adenanthin + HAV6 vs adenanthin alone or placebo
  survival and tumor growth, in words: increased survival and suppressed tumor growth
[3]; mice with medulloblastoma brain tumor
  delivery of adenanthin into brain, in words: significantly improve the delivery of an anticancer drug, adenanthin, into the brains of mice
Brain [4]; HAV6 and ADTC5 collectively, 14C-mannitol, PEG, daunomycin, R800, Gd-DTPA, cLABL, cIBR7, galbumin etc., ref [18],[19],[20],[21],[22],[23]
  brain delivery of various molecules, in words: increase the brain delivery of various molecules
Brain [4]; rats, ref [25]
  oral and brain deliveries of eflornithine, in words: simultaneously increased
EC1 domain of E-cadherin
  binding site on EC1 domain, in words: bind to the EC1 domain of E-cadherin at the interface of cis-cadherin interactions
Brain (C57BL/6 mice) [5]
  brain delivery of 15 kDa lysozyme vs control, in words: significantly enhanced the brain delivery of 15 kDa lysozyme compared to the control
BBB [6]; 65 kDa galbumin, ref [22] for HAV6 galbumin data, none printed for ADTC5
  BBB window of opening for galbumin: < 10 min
BBB [6]; IRdye-R800 and Gd-DTPA, ref [20],[21]
  opening window of BBB for small molecule (IRdye-R800 and Gd-DTPA): less than 1 h
Brain (C57BL/6 mice) [7]
  brain delivery of albumin vs control, in words: did not significantly enhance brain delivery of albumin; also recorded: no significant enhancement of albumin brain deposition
Brains of C57BL/6 mice; IgG mAb 21.6 nmol/kg with or without 13 µmol/kg peptide, i.v. tail vein, 15 min circulation, PBS/0.5% Tween-20 perfusion, NIRF (Odyssey CLx) of brain homogenate, mean ± SEM
  amount of IgG mAb in the brain (brain deposition): 3.4 ± 0.4 pmol/g brain
Brains of C57BL/6 mice; IgG mAb 21.6 nmol/kg, peptide 13 µmol/kg i.v., 15 min, ANOVA Student–Newman–Keuls
  brain delivery of IgG mAb compared to control (IgG mAb alone), in words: did not enhance brain delivery of IgG mAb compared to the control
BBB [8]; 10-min delay between peptide and galbumin
  BBB penetration of galbumin with 10-min delay after peptide, in words: does not allow the galbumin to cross the BBB
BBB [8]; galbumin 600 nmol/kg, living mice, MRI
  brain deposition of galbumin, in words: significant brain deposition of galbumin
BBB [8]; high dose galbumin
  BBB penetration of 65 kDa galbumin, delivered together with peptide, in words: can increase the BBB penetration of galbumin

## Ac-ADTPPV-NH2 [ADT6, linear ADT peptide of Bocsik et al]
[9]
  disruption of intercellular junctions (TEER), in words: reversibly disrupts the intercellular junctions of primary brain endothelial cell monolayers

## cyclo(1,6)Ac-CDTPPC-NH2 (disulfide) [ADTC6, earlier cyclic ADT peptide]
[10]
  activity of ADT peptide, in words: lowered the activity of ADTC6 compared to ADTC5
